Measured values taken from patent publication US20230391779A1, “BICYCLIC COMPOUNDS, COMPOSITIONS AND USE THEREOF” (Betta Pharmaceuticals Co., Ltd., priority 2020, published 2023).
pEC50, pIC50: −log10 of the molar value.

Assays:
TEAD-YAP/TAZ interaction = assay: CTGF ELISA assay; type: cell-based, human; details: CTGF in culture supernatant of NCI-H2052 cells, 24 hours with compound
How it was run: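 NCI-H2052 cells treated 24 h at 37 °C with compound (10000–0.61 nM, 0.5% DMSO); secreted CTGF in supernatant measured by sandwich ELISA (OD 450 nm) against a standard curve. EC50 fitted from CTGF concentration-response curves.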

NCI-H226 cells = assay: BRDU assay (cell proliferation); type: cell-based; details: Homo sapiens, proliferation inhibition, 1% FBS medium
Procedure: PerkinElmer's DELFIA® Cell proliferation kit (PerkinElmer, Cat: AD0200) was used to detect the inhibition on the proliferation of NCI-H226 cells (ATCC, CRL-5826). • a) Seeded 1500/well for NCI-H226 cell into a 96-well plate. • b) After 24 hours, compound was added to wells with 1% FBS medium conditions. The final testing concentrations of test compounds were […]. • c) NCI-H226 cells were incubated for 72 hours in incubator. • d) Diluted BrdU Labeling Reagent 100-fold with medium and added […] per well. The NCI-H226 cells were incubated 24 h in 5% CO2 at 37° C. incubator. • e) Detect cell proliferation according BrdU kit, and the luminescence signal value of each well on the multifunctional microplate reader was readed.
Data analysis: • Use GraphPad Prism 6 software to calculate IC50 and plot effect-dose curve of compounds.
Y=Bottom+(Top−Bottom)/(1+10^((LogIC50−X)×HillSlope)). • Y was the inhibition %, • X was the log concentration of compounds.
Inhibition %=(signalHC−signalcomp)/(signalHC−signalLC); • HC (high control) was DMSO group, • LC (low control) was 10 uM staurosporine group, • Comp was administration group.
IC50 data obtained for the Example compounds are provided in Table 7, and the inhibition curve in NCI-H226 cell line are as shown in FIG. 1-7, wherein X axis is compound concentration (nm), Y axis is the inhibition %.

[1] = tested on: NCI-H226 human lung squamous cell carcinoma xenograft; assay: In vivo efficacy, subcutaneous NCI-H226 xenograft model; design: species or system BALB/c nude mice; details: QD, oral, tumor volume at day 28
Procedure: In vivo pharmacodynamic and efficacy studies of compound 5, compound 6, and compound 124 in the subcutaneous NCI-H226 human lung squamous cell carcinoma xenograft model on BALB/c nude mice.
(§1) Each mouse (D000521 BALB/c-Nu, GemPharmatech Co., Ltd.) was inoculated subcutaneously at the right flank with NCI-H226 tumor cells (ATCC, CRL-5826) (1×107) in 0.2 mL of PBS with Matrigel (Corning, 356234) (1:1) for tumor development. Treatments were started when the average tumor size reached approximately 100-150 mm3. The test article was administered to the mice orally once a day from the day of grouping, total 28 days (QD×28 Days). Body weight change of animals was monitored regularly as an indicator of drug safety. Tumor volumes were measured twice weekly in two dimensions using a caliper, and the volume was expressed in mm3 using the formula “V=(LλW^2)/2”, where V is the tumor volume, L is the tumor length (the longest tumor dimension) and W is the tumor width (the longest tumor dimension perpendicular to L). Therapeutic efficacy was evaluated by tumor growth inhibition TGI (%)·TGI (%)=[1−(Ti−T0)/(Vi−V0)]×100; Ti is the average tumor volume of a treatment group on a given day, TO is the average tumor volume of the treatment group on day 0, Vi is the average tumor volume of the vehicle control group on the same day with Ti, and V0 is the average tumor volume of the vehicle group on day 0.

[2] = Body weight change in NCI-H226 xenograft model; type: in vivo, BALB/c nude mice; details: daily oral dosing, 28 days, mice bearing NCI-H226 tumor
Procedure: as §1

[3] = Pharmacokinetics in plasma following PO cassette dosing in mice; type: in vivo; details: mouse, Balb/C female mice, 5 mg/kg; for AUC: blood collection 30 min, 2 h, 4 h
Procedure: Adult Balb/C female mice (6-7 weeks, Vitalriver) were received to cassette dosing of the test compounds with 10-20% DMSO, 10% Solutol (Kolliphor HS 15, Beijing Fengli Jingqiu Pharmaceutical Co., Ltd.) and 80-70% H2O as excipients. The mice (n=3) were giving oral administration (intragastric administration) at a dose of 5 mg/kg. Time of blood collection: 30 min, 2 h, 4 h. About 0.1 mL of whole blood was collected from retro-orbital venous plexus, and placed into tubes that contained EDTA as an anticoagulant. The samples were centrifuged at 4° C. and 4000 rpm for 10 min. The plasma was transferred into centrifuge tubes, and stored at −20° C. before being analyzed. Concentrations of test compounds in the plasma samples were analyzed with liquid chromatography-tandem mass spectrometry (LC-MS/MS). Plasma concentration-time data of individual animals was analyzed using Microsoft Excel 2010. Non-compartmental model was introduced in concentration analysis. The pharmacokinetic parameters of the test compounds were calculated using WinNonlin (version 4.1; Pharsight) software.

Row | SMILES | pEC50 (TEAD-YAP/TAZ interaction) | pIC50 (NCI-H226 cells) | Cmax [3] [µg/mL] | AUC [3] [µg·h/mL] | TGI (%) ([1]; 2 mg/kg) | TGI (%) ([1]; 10 mg/kg) | body weight loss [2] | TGI (%) ([1]; 0.5 mg/kg) | TGI (%) ([1]; 50 mg/kg)
1 | C=C(F)C(=O)N1CC(n2nc(-c3ccc(C(F)(F)F)nc3)c3cccnc32)C1 [Compound 124, 2-fluoro-1-(3-(3-(6-(trifluoro-methyl)pyridin-3-yl)-1H-pyrazolo[3,4-b]pyridin-1-yl)-azetidin-1-yl)prop-2-en-1-one] | 7.85 | 7.68 | 7.19 | 24.3 | 67.3 |  | no significant body weight loss |  | 
2 | C=C(C)C(=O)N1CC(n2nc(-c3ccc(C(F)(F)F)cc3)c3cccnc32)C1 [Compound 73, 2-methyl-1-(3-(3-(4-(trifluoro-methyl)phenyl)-1H-pyrazolo[3,4-b]pyridin-1-yl)azetidin-1-yl)prop-2-en-1-one] | 8.15 | 6.94 | 1.19 | 4.07 |  |  |  |  | 
3 | C=CC(=O)N1CC(n2nc(-c3ccc(C(F)(F)F)cc3)c3cccnc32)C1 [Compound 30, 1-(3-(3-(4-(trifluoromethyl)phen-yl)-1H-pyrazolo[3,4-b]pyridin-1-yl)azetidin-1-yl)prop-2-en-1-one] | 7.92 | 7.25 |  |  |  |  |  |  | 
4 | C=C(F)C(=O)N1CC(n2nc(-c3ccc(C(F)(F)F)nc3)c3ncccc32)C1 [Compound 132, 2-fluoro-1-(3-(3-(6-(trifluoro-methyl)pyridin-3-yl)-1H-pyrazolo[4,3-b]pyridin-1-yl)-azetidin-1-yl)prop-2-en-1-one] | 8.22 | 7.90 |  |  |  |  |  |  | 
5 | C=C(F)C(=O)N1CC(n2nc(-c3ccc(C(F)(F)F)cc3)c3cccnc32)C1 [Compound 5, 2-fluoro-1-(3-(3-(4-(trifluoromethyl)phenyl)-1H-pyrazolo[3,4-b]pyridin-1-yl)azetidin-1-yl)prop-2-en-1-one] | 8.52 | 8.27 |  |  | 76.9 | 101.3 | no significant body weight loss | 40.3 | 105.9

Continued by rising pEC50 (TEAD-YAP/TAZ interaction), values first:

Row | pEC50 (TEAD-YAP/TAZ interaction) | pIC50 (NCI-H226 cells) | Cmax [3] [µg/mL] | AUC [3] [µg·h/mL] | SMILES | TGI (%) ([1]; 2 mg/kg) | TGI (%) ([1]; 10 mg/kg) | body weight loss [2] | TGI (%) ([1]; 0.5 mg/kg) | TGI (%) ([1]; 50 mg/kg)
6 | 7.52 | 7.71 |  |  | C=CC(=O)N1CCC(n2nc(-c3ccc(C(F)(F)F)cc3)c3ccccc32)C1 (stereo not drawn) [Compound 3, 1-(3-(3-(4-(trifluoromethyl)phenyl)-1H-indazol-1-yl)pyrrolidin-1-yl)prop-2-en-1-one] |  |  |  |  | 
7 | 8.70 | 8.63 |  |  | C=C(F)C(=O)N1CC(n2nc(-c3ccc(C(F)(F)F)cc3)c3ncn(C)c(=O)c32)C1 [Compound 80, 1-(1-(2-fluoroacryloyl)azetidin-3-yl)-6-methyl-3-(4-(trifluorometh-yl)phenyl)-1,6-dihydro-7H-pyrazolo[4,3-d]pyrimidin-7-one] |  |  |  |  | 
8 | 8.70 | 6.85 |  |  | C=C(F)C(=O)N1CC(n2nc(-c3ccc(C(F)(F)F)cc3)c3ncccc32)C1 [Compound 6, 2-fluoro-1-(3-(3-(4-(trifluoromethyl)phenyl)-1H-pyrazolo[4,3-b]pyridin-1-yl)azetidin-1-yl)prop-2-en-1-one] | 77.1 | 88.6 | no significant body weight loss |  | 
9 | 8.89 |  | 1.6 | 5.88 | C=C(F)C(=O)N1CC(n2c(=O)n(-c3ccc(C(F)(F)F)cc3)c3nccnc32)C1 [Compound 240, 1-(1-(2-fluoroacryloyl)azetidin-3-yl)-3-(4-(trifluoromethyl)phenyl)-1,3-dihydro-2H-imidazo[4,5-b]pyrazin-2-one] |  |  |  |  | 
